Results taken from article PMC10176470, “Engaging a Non-catalytic Cysteine Residue Drives Potent and Selective Inhibition of Caspase-6” (Journal of the American Chemical Society, 2023).

How the values were obtained:
Type in all cases: cell-based
[1] = biological target: proteins of HEK293T cells transiently overexpressing caspase-6 (Homo sapiens, UniProt O43143); conditions: exp_ref Probe; protein DHX15 (O43143); analysis C6
[2] = biological target: proteins of HEK293T cells transiently overexpressing caspase-6 (Homo sapiens, UniProt P31689); conditions: exp_ref Probe; protein DNAJA1 (P31689); analysis C6
Sequence of proteins of HEK293T cells transiently overexpressing caspase-6 (Homo sapiens, UniProt P31689) (P31689 whole entry): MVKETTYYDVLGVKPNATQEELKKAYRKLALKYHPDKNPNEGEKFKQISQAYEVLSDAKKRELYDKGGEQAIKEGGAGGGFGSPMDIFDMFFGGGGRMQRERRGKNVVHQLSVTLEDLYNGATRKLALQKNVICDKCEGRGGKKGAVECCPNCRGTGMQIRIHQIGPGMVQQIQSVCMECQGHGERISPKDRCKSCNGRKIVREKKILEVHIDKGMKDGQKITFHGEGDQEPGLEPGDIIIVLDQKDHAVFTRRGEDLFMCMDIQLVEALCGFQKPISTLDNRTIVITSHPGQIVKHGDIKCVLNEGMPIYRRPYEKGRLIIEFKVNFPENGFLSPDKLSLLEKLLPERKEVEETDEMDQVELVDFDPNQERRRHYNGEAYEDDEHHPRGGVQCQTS

[3] = biological target: proteins of HEK293T cells transiently overexpressing caspase-6 (Homo sapiens, UniProt Q07020); conditions: Probe; protein RPL18 Q07020
[4] = biological target: T1, proteins of HEK293T cells transiently overexpressing caspase-6 (Homo sapiens, UniProt O00410); conditions: protein IPO5 (O00410)
T1 sequence (O00410 1-1097): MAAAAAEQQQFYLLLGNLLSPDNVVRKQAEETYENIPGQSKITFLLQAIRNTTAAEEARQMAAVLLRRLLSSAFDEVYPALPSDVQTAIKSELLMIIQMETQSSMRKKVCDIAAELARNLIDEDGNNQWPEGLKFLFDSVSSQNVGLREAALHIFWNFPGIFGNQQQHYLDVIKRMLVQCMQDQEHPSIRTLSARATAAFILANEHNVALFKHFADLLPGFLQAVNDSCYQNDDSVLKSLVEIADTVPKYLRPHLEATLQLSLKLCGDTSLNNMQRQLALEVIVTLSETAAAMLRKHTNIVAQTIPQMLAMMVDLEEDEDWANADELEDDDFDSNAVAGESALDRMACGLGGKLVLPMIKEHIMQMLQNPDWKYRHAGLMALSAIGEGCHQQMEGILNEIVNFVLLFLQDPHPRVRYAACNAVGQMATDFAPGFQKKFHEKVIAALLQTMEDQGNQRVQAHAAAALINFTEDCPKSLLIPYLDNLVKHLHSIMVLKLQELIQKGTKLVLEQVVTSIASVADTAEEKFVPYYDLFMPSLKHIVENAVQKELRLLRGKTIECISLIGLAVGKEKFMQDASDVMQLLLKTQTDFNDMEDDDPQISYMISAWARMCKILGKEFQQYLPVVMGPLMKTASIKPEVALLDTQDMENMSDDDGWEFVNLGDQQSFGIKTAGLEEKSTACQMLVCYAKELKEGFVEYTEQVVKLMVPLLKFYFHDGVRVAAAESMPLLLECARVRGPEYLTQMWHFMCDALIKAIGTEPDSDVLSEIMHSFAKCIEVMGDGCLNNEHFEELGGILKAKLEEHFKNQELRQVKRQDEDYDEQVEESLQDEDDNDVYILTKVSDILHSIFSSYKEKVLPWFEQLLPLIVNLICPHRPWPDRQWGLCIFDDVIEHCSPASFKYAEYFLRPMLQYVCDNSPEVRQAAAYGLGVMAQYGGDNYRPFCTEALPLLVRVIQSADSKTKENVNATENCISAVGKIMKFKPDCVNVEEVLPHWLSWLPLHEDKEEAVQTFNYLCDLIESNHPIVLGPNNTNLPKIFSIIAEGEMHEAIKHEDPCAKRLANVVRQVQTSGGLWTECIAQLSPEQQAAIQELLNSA

[5] = biological target: T2, proteins of HEK293T cells transiently overexpressing caspase-6 (Homo sapiens, UniProt Q96RQ3)
T2 sequence (Q96RQ3 42-725): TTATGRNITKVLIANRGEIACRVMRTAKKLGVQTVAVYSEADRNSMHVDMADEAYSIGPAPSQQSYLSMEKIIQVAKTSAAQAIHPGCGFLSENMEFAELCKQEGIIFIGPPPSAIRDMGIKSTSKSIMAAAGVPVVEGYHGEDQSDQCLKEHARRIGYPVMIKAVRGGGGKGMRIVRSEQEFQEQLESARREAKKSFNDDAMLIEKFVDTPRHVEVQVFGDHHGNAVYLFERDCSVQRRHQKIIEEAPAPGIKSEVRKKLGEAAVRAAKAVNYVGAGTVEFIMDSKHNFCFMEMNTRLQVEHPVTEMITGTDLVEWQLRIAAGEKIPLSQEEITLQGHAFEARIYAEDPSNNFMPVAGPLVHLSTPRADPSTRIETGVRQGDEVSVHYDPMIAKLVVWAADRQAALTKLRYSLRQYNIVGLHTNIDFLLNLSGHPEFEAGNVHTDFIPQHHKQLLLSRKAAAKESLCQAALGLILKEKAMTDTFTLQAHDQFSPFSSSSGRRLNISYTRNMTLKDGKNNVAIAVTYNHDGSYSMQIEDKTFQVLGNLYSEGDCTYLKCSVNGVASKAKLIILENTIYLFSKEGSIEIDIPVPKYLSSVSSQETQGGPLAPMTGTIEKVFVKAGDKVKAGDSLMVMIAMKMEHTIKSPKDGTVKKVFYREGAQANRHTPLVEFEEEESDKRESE

[6] = biological target: proteins of HEK293T cells transiently overexpressing caspase-6 (Homo sapiens, UniProt Q13263); conditions: protein TRIM28 (Q13263)
Sequence of proteins of HEK293T cells transiently overexpressing caspase-6 (Homo sapiens, UniProt Q13263) (Q13263 whole entry): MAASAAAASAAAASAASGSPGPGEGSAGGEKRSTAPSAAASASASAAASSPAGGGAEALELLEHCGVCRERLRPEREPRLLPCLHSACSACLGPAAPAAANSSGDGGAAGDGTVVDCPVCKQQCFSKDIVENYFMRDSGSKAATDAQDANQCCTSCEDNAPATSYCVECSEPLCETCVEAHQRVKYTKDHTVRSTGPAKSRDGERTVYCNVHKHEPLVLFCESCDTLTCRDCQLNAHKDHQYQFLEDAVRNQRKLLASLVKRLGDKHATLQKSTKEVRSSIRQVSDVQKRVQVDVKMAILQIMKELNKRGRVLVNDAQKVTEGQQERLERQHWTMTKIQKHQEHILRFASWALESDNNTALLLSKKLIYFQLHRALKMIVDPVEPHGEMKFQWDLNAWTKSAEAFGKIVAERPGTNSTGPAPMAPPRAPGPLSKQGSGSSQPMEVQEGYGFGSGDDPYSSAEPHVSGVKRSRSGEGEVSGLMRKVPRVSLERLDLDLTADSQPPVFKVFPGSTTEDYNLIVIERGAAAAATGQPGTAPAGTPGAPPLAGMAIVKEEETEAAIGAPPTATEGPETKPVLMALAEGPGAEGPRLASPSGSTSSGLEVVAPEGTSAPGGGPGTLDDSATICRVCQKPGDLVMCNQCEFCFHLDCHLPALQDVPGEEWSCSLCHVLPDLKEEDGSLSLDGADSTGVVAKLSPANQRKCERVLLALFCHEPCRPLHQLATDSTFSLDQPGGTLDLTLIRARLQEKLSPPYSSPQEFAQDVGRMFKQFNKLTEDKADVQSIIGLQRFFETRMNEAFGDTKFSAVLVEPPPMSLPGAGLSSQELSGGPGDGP

[7] = biological target: proteins of HEK293T cells transiently overexpressing caspase-6 (Homo sapiens, UniProt Q06830); conditions: exp_ref Probe; protein PRDX1 (Q06830); analysis C6
Sequence of proteins of HEK293T cells transiently overexpressing caspase-6 (Homo sapiens, UniProt Q06830) (Q06830 whole entry): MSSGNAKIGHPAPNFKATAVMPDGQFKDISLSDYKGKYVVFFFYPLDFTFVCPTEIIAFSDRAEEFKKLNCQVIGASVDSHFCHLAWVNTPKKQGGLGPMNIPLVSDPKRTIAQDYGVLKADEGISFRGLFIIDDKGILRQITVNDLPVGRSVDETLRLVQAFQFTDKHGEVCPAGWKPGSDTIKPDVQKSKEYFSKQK

[8] = biological target: proteins of HEK293T cells transiently overexpressing caspase-6 (Homo sapiens, UniProt P08133); conditions: exp_ref Probe; protein ANXA6 (P08133); analysis C6
Sequence of proteins of HEK293T cells transiently overexpressing caspase-6 (Homo sapiens, UniProt P08133) (P08133 whole entry): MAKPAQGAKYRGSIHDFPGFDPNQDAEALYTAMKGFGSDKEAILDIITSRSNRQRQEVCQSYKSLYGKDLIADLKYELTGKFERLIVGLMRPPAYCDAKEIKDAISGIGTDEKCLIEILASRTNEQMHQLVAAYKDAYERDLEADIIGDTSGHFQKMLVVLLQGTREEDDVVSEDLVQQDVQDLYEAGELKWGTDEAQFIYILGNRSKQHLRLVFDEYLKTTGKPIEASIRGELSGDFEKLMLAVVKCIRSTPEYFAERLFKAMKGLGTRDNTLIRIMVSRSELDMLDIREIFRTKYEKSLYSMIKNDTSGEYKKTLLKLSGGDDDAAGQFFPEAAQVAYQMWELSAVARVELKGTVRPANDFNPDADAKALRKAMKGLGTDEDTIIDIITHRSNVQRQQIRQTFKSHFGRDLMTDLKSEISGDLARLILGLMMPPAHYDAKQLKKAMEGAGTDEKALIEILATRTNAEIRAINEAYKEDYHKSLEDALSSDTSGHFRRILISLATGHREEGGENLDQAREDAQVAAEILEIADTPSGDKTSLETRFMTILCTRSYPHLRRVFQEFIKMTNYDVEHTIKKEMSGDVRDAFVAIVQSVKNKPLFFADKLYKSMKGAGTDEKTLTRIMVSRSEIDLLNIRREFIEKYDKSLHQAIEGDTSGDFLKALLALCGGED

[9] = biological target: proteins of HEK293T cells transiently overexpressing caspase-6 (Homo sapiens, UniProt Q16531); conditions: Probe; protein DDB1 Q16531
[10] = biological target: proteins of HEK293T cells transiently overexpressing caspase-6 (Homo sapiens, UniProt Q86YZ3); conditions: Probe; protein HRNR Q86YZ3
Sequence of proteins of HEK293T cells transiently overexpressing caspase-6 (Homo sapiens, UniProt Q86YZ3) (Q86YZ3 whole entry): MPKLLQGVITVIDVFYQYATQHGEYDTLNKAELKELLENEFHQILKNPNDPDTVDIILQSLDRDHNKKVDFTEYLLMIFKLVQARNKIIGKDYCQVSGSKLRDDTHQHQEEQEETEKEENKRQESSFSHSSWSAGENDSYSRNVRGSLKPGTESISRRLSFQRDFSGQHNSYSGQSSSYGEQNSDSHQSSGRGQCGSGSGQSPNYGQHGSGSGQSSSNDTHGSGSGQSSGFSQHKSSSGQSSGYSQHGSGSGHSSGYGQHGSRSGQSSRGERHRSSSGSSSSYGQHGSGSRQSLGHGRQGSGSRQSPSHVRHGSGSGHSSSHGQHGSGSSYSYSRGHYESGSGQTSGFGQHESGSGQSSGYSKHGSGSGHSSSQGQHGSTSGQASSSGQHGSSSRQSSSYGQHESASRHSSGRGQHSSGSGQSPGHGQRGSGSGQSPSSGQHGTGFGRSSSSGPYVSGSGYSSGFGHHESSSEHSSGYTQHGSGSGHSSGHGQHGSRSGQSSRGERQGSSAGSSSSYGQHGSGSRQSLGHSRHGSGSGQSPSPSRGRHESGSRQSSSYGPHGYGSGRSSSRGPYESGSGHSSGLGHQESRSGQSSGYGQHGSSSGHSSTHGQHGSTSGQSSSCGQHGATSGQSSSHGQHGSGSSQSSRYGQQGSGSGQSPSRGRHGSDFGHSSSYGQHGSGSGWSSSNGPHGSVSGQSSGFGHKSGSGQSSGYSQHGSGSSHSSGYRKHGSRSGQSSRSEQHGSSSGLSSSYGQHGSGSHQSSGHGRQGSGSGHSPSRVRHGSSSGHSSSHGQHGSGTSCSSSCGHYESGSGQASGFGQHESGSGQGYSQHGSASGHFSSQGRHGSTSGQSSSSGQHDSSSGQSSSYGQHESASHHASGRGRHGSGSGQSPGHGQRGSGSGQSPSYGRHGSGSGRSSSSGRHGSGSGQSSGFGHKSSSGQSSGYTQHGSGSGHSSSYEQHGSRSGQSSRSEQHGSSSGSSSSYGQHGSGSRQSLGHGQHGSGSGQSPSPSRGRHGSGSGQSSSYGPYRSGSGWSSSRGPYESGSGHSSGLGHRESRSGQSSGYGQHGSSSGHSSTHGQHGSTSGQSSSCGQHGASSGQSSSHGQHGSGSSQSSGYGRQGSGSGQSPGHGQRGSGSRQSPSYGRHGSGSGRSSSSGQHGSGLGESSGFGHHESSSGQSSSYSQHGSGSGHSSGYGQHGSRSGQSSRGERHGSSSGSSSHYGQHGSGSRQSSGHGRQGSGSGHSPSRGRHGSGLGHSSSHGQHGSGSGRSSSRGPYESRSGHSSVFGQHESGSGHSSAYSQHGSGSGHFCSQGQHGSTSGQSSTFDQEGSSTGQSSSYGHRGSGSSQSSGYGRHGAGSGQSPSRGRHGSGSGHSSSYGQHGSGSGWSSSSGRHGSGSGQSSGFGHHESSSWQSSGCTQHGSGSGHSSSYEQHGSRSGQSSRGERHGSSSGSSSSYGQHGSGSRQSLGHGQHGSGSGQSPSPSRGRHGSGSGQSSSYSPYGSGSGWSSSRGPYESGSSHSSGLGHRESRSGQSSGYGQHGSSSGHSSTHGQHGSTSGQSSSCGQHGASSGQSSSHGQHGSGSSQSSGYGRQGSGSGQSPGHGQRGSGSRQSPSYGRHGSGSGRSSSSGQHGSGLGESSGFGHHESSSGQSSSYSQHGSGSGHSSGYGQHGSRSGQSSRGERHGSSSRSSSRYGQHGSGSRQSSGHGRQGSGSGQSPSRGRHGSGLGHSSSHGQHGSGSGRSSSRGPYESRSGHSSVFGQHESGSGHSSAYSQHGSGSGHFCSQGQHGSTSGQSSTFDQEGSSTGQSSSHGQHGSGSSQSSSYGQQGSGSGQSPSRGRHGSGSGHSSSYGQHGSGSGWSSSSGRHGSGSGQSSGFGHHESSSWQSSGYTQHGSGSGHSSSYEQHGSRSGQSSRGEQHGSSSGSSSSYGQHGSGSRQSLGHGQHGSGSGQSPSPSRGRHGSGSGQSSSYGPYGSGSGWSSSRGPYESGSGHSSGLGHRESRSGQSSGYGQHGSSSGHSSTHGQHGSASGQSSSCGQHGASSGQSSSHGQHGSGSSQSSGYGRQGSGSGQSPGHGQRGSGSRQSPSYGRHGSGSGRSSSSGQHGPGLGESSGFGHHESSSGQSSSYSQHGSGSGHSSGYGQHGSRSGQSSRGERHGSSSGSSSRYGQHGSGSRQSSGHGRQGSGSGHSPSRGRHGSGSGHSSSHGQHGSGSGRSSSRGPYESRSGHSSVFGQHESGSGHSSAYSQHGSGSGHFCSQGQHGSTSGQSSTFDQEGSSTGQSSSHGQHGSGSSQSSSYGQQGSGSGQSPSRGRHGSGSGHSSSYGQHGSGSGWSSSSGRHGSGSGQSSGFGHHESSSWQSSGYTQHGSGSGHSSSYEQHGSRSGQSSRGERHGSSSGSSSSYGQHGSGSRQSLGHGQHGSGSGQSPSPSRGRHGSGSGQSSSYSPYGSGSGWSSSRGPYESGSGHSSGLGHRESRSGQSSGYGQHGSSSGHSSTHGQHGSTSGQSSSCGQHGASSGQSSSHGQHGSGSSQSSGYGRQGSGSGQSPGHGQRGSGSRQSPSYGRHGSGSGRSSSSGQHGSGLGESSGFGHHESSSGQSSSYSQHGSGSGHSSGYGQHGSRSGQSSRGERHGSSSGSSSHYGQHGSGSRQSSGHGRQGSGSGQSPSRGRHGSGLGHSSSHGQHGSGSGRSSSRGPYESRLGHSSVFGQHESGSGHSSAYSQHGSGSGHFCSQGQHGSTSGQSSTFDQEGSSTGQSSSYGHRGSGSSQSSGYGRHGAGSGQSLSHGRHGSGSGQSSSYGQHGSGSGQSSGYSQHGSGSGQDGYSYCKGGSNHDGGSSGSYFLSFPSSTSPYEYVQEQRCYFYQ

C#CCOc1ccc([C@@H]2C[C@@H](C(=O)Nc3ccc(OC(F)(F)F)cc3)CN(S(=O)(=O)C=C)C2)cc1 (relative stereo) [13-t]
enrich.exp.med [1]: 1.187 | enrich.exp.med [2]: 0.404 | enrich.exp.med [3]: -0.6313 | enrich.exp.med ([4]; exp_ref Probe, analysis C6): 0.788 | enrich.exp.med.lin [4]: 1.727 | enrich.exp.med.log2 [4]: 0.788 | enrich.exp.med ([5]; Probe, protein MCCC1 Q96RQ3): -2.028 | enrich.exp.med.lin ([5]; protein MCCC1 (Q96RQ3)): 0.2451 | enrich.exp.med.log2 ([5]; protein MCCC1 (Q96RQ3)): -2.028 | enrich.exp.med ([6]; exp_ref Probe, analysis C6): 0.8833 | enrich.exp.med.lin [6]: 1.845 | enrich.exp.med.log2 [6]: 0.8833 | enrich.exp.med [7]: -0.1545 | enrich.exp.med [8]: 0.01987 | enrich.exp.med [9]: -0.5354 | enrich.exp.med [10]: -8.887
